Measurements published in ChEMBL document CHEMBL3046766, “Design, synthesis, and insecticidal evaluation of new benzoylureas containing isoxazoline and isoxazole group” (2011).
≈ marks a conversion by molar mass, not a printed value.

How the values were obtained:
Assay type in all cases: functional
Mythimna separata [1] = experiment: Insecticidal activity against Mythimna separata (Oriental armyworm) fourth-instar larvae infested compound pre-treated corn leaves assessed as larvicidal activity at 100 mg/L measured 4 days post treatment
Plutella xylostella [2] = experiment: Insecticidal activity against Plutella xylostella (diamondback moth) […] larvae infested on compound pre-treated fresh cabbage leaves assessed as larvicidal activity at 200 mg/L measured 3 days post treatment
Culex pipiens pallens [3] = experiment: Insecticidal activity against Culex pipiens pallens (mosquito) fourth-instar larvae assessed as larvicidal activity at 2 mg/L measured 8 days post treatment; details: 192 h
Mythimna separata [4] = experiment: Insecticidal activity against Mythimna separata (Oriental armyworm) fourth-instar larvae infested compound pre-treated corn leaves assessed as larvicidal activity at 50 mg/L measured 4 days post treatment
Plutella xylostella [5] = experiment: Insecticidal activity against Plutella xylostella (diamondback moth) […] larvae infested on compound pre-treated fresh cabbage leaves assessed as larvicidal activity at 20 mg/L measured 3 days post treatment
Mythimna separata [6] = experiment: Insecticidal activity against Mythimna separata (Oriental armyworm) fourth-instar larvae infested compound pre-treated corn leaves assessed as larvicidal activity at 200 mg/L measured 4 days post treatment
Culex pipiens pallens [7] = experiment: Insecticidal activity against Culex pipiens pallens (mosquito) fourth-instar larvae assessed as larvicidal activity at 0.5 mg/L measured 8 days post treatment; details: 192 h
Mythimna separata [8] = experiment: Insecticidal activity against Mythimna separata (Oriental armyworm) fourth-instar larvae infested compound pre-treated corn leaves assessed as larvicidal activity at 10 mg/L measured 4 days post treatment
Mythimna separata [9] = experiment: Insecticidal activity against Mythimna separata (Oriental armyworm) fourth-instar larvae infested compound pre-treated corn leaves assessed as larvicidal activity at 25 mg/L measured 4 days post treatment
Plutella xylostella [10] = experiment: Insecticidal activity against Plutella xylostella (diamondback moth) […] larvae infested on compound pre-treated fresh cabbage leaves assessed as larvicidal activity at 5 mg/L measured 3 days post treatment
Culex pipiens pallens [11] = experiment: Insecticidal activity against Culex pipiens pallens (mosquito) fourth-instar larvae assessed as larvicidal activity at 1 mg/L measured 8 days post treatment; details: 192 h
Plutella xylostella [12] = experiment: Insecticidal activity against Plutella xylostella (diamondback moth) […] larvae infested on compound pre-treated fresh cabbage leaves assessed as larvicidal activity measured 3 days post treatment
Culex pipiens pallens [13] = experiment: Insecticidal activity against Culex pipiens pallens (mosquito) fourth-instar larvae assessed as larvicidal activity at 0.001 mg/L measured 8 days post treatment; details: 192 h
Mythimna separata [14] = experiment: Insecticidal activity against Mythimna separata (Oriental armyworm) fourth-instar larvae infested compound pre-treated corn leaves assessed as larvicidal activity at 1 mg/L measured 4 days post treatment
Culex pipiens pallens [15] = experiment: Insecticidal activity against Culex pipiens pallens (mosquito) fourth-instar larvae assessed as larvicidal activity at 0.005 mg/L measured 8 days post treatment; details: 192 h
Mythimna separata [16] = experiment: Insecticidal activity against Mythimna separata (Oriental armyworm) fourth-instar larvae infested compound pre-treated corn leaves assessed as larvicidal activity at 0.25 mg/L measured 4 days post treatment
Culex pipiens pallens [17] = experiment: Insecticidal activity against Culex pipiens pallens (mosquito) fourth-instar larvae assessed as larvicidal activity at 0.0005 mg/L measured 8 days post treatment; details: 192 h
Mythimna separata [18] = experiment: Insecticidal activity against Mythimna separata (Oriental armyworm) fourth-instar larvae infested compound pre-treated corn leaves assessed as larvicidal activity at 0.5 mg/L measured 4 days post treatment
Culex pipiens pallens [19] = experiment: Insecticidal activity against Culex pipiens pallens (mosquito) fourth-instar larvae assessed as larvicidal activity at 0.1 mg/L measured 8 days post treatment; details: 192 h
Culex pipiens pallens [20] = experiment: Insecticidal activity against Culex pipiens pallens (mosquito) fourth-instar larvae assessed as larvicidal activity at 0.25 mg/L measured 8 days post treatment; details: 192 h
Plutella xylostella [21] = experiment: Insecticidal activity against Plutella xylostella (diamondback moth) […] larvae infested on compound pre-treated fresh cabbage leaves assessed as larvicidal activity at 100 mg/L measured 3 days post treatment
Mythimna separata [22] = experiment: Insecticidal activity against Mythimna separata (Oriental armyworm) fourth-instar larvae infested compound pre-treated corn leaves assessed as larvicidal activity at 5 mg/L measured 4 days post treatment
Culex pipiens pallens [23] = experiment: Insecticidal activity against Culex pipiens pallens (mosquito) fourth-instar larvae assessed as larvicidal activity at 0.05 mg/L measured 8 days post treatment; details: 192 h
Mythimna separata [24] = experiment: Insecticidal activity against Mythimna separata (Oriental armyworm) fourth-instar larvae infested compound pre-treated corn leaves assessed as larvicidal activity at 2.5 mg/L measured 4 days post treatment
Culex pipiens pallens [25] = experiment: Insecticidal activity against Culex pipiens pallens (mosquito) fourth-instar larvae assessed as larvicidal activity at 0.025 mg/L measured 8 days post treatment; details: 192 h
Plutella xylostella [26] = experiment: Insecticidal activity against Plutella xylostella (diamondback moth) […] larvae infested on compound pre-treated fresh cabbage leaves assessed as larvicidal activity at 2 mg/L measured 3 days post treatment
Plutella xylostella [27] = experiment: Insecticidal activity against Plutella xylostella (diamondback moth) […] larvae infested on compound pre-treated fresh cabbage leaves assessed as larvicidal activity at 0.02 mg/L measured 3 days post treatment
Plutella xylostella [28] = experiment: Insecticidal activity against Plutella xylostella (diamondback moth) […] larvae infested on compound pre-treated fresh cabbage leaves assessed as larvicidal activity at 0.2 mg/L measured 3 days post treatment

Row | SMILES | mortality at 100 µg/mL (Mythimna separata [1]) | mortality at 200 µg/mL (Plutella xylostella [2]) | mortality at 2 µg/mL (Culex pipiens pallens [3]) | mortality at 50 µg/mL (Mythimna separata [4]) | mortality at 20 µg/mL (Plutella xylostella [5]) | also measured
1 | O=C(NC(=O)c1c(F)cccc1F)Nc1ccc(C2=NOC3CCCC23)cc1 (stereo not given) | 100% | 0% | 50% | 0% | – | –
2 | O=C(NC(=O)c1c(F)cccc1F)Nc1ccc(-c2cc(COCC(F)(F)F)on2)cc1 | 100% | 30% | 40% | 20% | 0% | mortality at 200 µg/mL (Mythimna separata [6]): 100%
3 | O=C(NC(=O)c1c(F)cccc1F)Nc1ccc(C2CC(c3ccc(F)cc3)=NO2)cc1 (stereo not given) | – | 100% | 100% | 100% | 70% | mortality at 0.5 µg/mL (Culex pipiens pallens [7]): 70%; mortality at 10 µg/mL (Mythimna separata [8]): 60%; mortality at 25 µg/mL (Mythimna separata [9]): 100%; mortality at 5 µg/mL (Plutella xylostella [10]): 0%; mortality at 1 µg/mL (Culex pipiens pallens [11]): 100%
4 | O=C(NC(=O)c1c(F)cccc1F)Nc1ccc(C2=NOC(COCC(F)(F)F)C2)cc1 (stereo not given) | 100% | 0% | 40% | 60% | – | –
5 | CC(C)(C)O/N=C/c1ccc(NC(=O)NC(=O)c2c(F)cccc2F)cc1 | – | – | – | – | – | LC50 (Plutella xylostella [12]): 30.8 µg/mL (≈ 82 µM); mortality at 0.001 µg/mL (Culex pipiens pallens [13]): 70%; mortality at 1 µg/mL (Mythimna separata [14]): 100%; mortality at 0.005 µg/mL (Culex pipiens pallens [15]): 100%; mortality at 0.25 µg/mL (Mythimna separata [16]): 0%; mortality at 0.0005 µg/mL (Culex pipiens pallens [17]): 20%; mortality at 0.5 µg/mL (Mythimna separata [18]): 85%
6 | CC1(c2ccccc2)CC(c2ccc(NC(=O)NC(=O)c3c(F)cccc3F)cc2)=NO1 (stereo not given) | 100% | 100% | – | 60% | 30% | mortality at 0.5 µg/mL (Culex pipiens pallens [7]): 100%; mortality at 0.1 µg/mL (Culex pipiens pallens [19]): 80%; mortality at 0.25 µg/mL (Culex pipiens pallens [20]): 100%; mortality at 200 µg/mL (Mythimna separata [6]): 100%; mortality at 100 µg/mL (Plutella xylostella [21]): 80%
7 | CCCCC1CC(c2ccc(NC(=O)NC(=O)c3c(F)cccc3F)cc2)=NO1 (stereo not given) | 100% | 80% | 30% | 0% | 20% | mortality at 200 µg/mL (Mythimna separata [6]): 100%; mortality at 100 µg/mL (Plutella xylostella [21]): 70%
8 | O=C(NC(=O)c1c(F)cccc1F)Nc1ccc(CO/N=C(/c2ccc(Cl)cc2)C2CC2)cc1 [FLUCYCLOXURON] | – | – | – | – | – | mortality at 5 µg/mL (Mythimna separata [22]): 90%; mortality at 10 µg/mL (Mythimna separata [8]): 95%; mortality at 1 µg/mL (Mythimna separata [14]): 10%; mortality at 0.1 µg/mL (Culex pipiens pallens [19]): 100%; mortality at 0.05 µg/mL (Culex pipiens pallens [23]): 100%; mortality at 2.5 µg/mL (Mythimna separata [24]): 50%; mortality at 0.025 µg/mL (Culex pipiens pallens [25]): 15%
9 | N#CC1CC(c2ccc(NC(=O)NC(=O)c3c(F)cccc3F)cc2)=NO1 (stereo not given) | 100% | 0% | – | 0% | – | mortality at 0.1 µg/mL (Culex pipiens pallens [19]): 70%; mortality at 0.25 µg/mL (Culex pipiens pallens [20]): 100%
10 | CCCCOCC1CC(c2ccc(NC(=O)NC(=O)c3c(F)cccc3F)cc2)=NO1 (stereo not given) | 100% | 10% | 100% | 40% | – | mortality at 1 µg/mL (Culex pipiens pallens [11]): 80%
11 | CCCCCCCCc1cc(-c2ccc(NC(=O)NC(=O)c3c(F)cccc3F)cc2)no1 | 100% | 10% | 40% | 20% | – | mortality at 200 µg/mL (Mythimna separata [6]): 100%
12 | O=C(NC(=O)c1c(F)cccc1F)Nc1ccc(C2=NOC3(CCCCC3)C2)cc1 | 100% | 20% | 70% | 40% | – | –
13 | O=C(NC(=O)c1c(F)cccc1F)Nc1ccc(C2=NOC(CBr)C2)cc1 (stereo not given) | 100% | 40% | 60% | 20% | 0% | –
14 | O=C(NC(=O)c1c(F)cccc1F)Nc1ccc(C2=NOC3CC23)cc1 (stereo not given) | 100% | 10% | 60% | 0% | – | –
15 | CCCCCCCC1CC(c2ccc(NC(=O)NC(=O)c3c(F)cccc3F)cc2)=NO1 (stereo not given) | 100% | 0% | 50% | 60% | – | –
16 | Cc1cc(-c2ccc(NC(=O)NC(=O)c3c(F)cccc3F)cc2)no1 | 100% | 10% | 20% | 20% | – | mortality at 200 µg/mL (Mythimna separata [6]): 100%
17 | O=C(NC(=O)c1c(F)cccc1F)Nc1ccc(C2=NOC(c3ccc(F)cc3)C2)cc1 (stereo not given) | – | – | 40% | – | 100% | mortality at 2 µg/mL (Plutella xylostella [26]): 30%; mortality at 5 µg/mL (Plutella xylostella [10]): 80%; mortality at 200 µg/mL (Mythimna separata [6]): 10%
18 | O=C(NC(=O)c1c(F)cccc1F)Nc1ccc(C2=NOC(c3ccccc3)C2)cc1 (stereo not given) | 100% | 50% | – | 0% | 30% | mortality at 0.1 µg/mL (Culex pipiens pallens [19]): 90%; mortality at 0.25 µg/mL (Culex pipiens pallens [20]): 100%
19 | COC(=O)C1CC(c2ccc(NC(=O)NC(=O)c3c(F)cccc3F)cc2)=NO1 (stereo not given) | 100% | 10% | 60% | 0% | – | –
20 | CC(C)(C)c1cc(-c2ccc(NC(=O)NC(=O)c3c(F)cccc3F)cc2)no1 | – | – | 40% | – | – | mortality at 5 µg/mL (Mythimna separata [22]): 100%; mortality at 0.02 µg/mL (Plutella xylostella [27]): 30%; mortality at 2 µg/mL (Plutella xylostella [26]): 100%; mortality at 10 µg/mL (Mythimna separata [8]): 100%; mortality at 5 µg/mL (Plutella xylostella [10]): 100%; mortality at 0.2 µg/mL (Plutella xylostella [28]): 60%; mortality at 2.5 µg/mL (Mythimna separata [24]): 0%
21 | O=C(NC(=O)c1c(F)cccc1F)Nc1ccc(C2=NOC3(CCCC3)C2)cc1 | 100% | 10% | 80% | 60% | – | –
22 | CCCCOCc1cc(-c2ccc(NC(=O)NC(=O)c3c(F)cccc3F)cc2)no1 | 100% | 0% | 60% | 80% | – | mortality at 200 µg/mL (Mythimna separata [6]): 100%
23 | CC(C)(C)C1CC(c2ccc(NC(=O)NC(=O)c3c(F)cccc3F)cc2)=NO1 (stereo not given) | – | – | – | 100% | – | mortality at 5 µg/mL (Mythimna separata [22]): 40%; mortality at 0.02 µg/mL (Plutella xylostella [27]): 10%; mortality at 2 µg/mL (Plutella xylostella [26]): 80%; mortality at 10 µg/mL (Mythimna separata [8]): 100%; mortality at 0.1 µg/mL (Culex pipiens pallens [19]): 50%; mortality at 25 µg/mL (Mythimna separata [9]): 100%; mortality at 5 µg/mL (Plutella xylostella [10]): 100%; mortality at 0.25 µg/mL (Culex pipiens pallens [20]): 100%; mortality at 0.2 µg/mL (Plutella xylostella [28]): 70%
24 | CC(C)(C)C1=NOC(c2ccc(NC(=O)NC(=O)c3c(F)cccc3F)cc2)C1 (stereo not given) | – | 100% | 100% | 100% | 100% | mortality at 10 µg/mL (Mythimna separata [8]): 40%; mortality at 25 µg/mL (Mythimna separata [9]): 100%; mortality at 5 µg/mL (Plutella xylostella [10]): 30%; mortality at 1 µg/mL (Culex pipiens pallens [11]): 80%
